Measured values from patent US11390618B2, “Inhibitors of cyclin-dependent kinases” (Kinnate Biopharma Inc., priority 2018, dated 2022).

Biological target: CDK12 wt/CycK (Homo sapiens (Human), UniProt Q9NYV4)
Test: Radiometric protein kinase assay (33PanQinase Activity Assay), Assay Condition A (thiol containing conditions)
Format: biochemical
Settings: thiol containing conditions (1.2 mM DTT), ATP at apparent Km
Method: Objective: The IC50 profile of test compounds was determined using three protein kinases.
Test compounds: The compounds were provided as pre-weighed powders in vials. The compounds were dissolved to 1×10^−02M by adding DMSO. 100 μl of each of the resulting stock solutions were transferred into column 2 of four 96 well “master plates”.
Prior to testing, the 1×10^−02M stock solutions in column 2 of the master plates were subjected to a serial, semi-logarithmic dilution using 100% DMSO as a solvent. […] Column 1 and 7 were filled with 100% DMSO as controls. […]
The reaction cocktails were incubated at 30° C. for 60 minutes. […] Incorporation of ^33Pi was determined with a microplate scintillation counter (Microbeta, Wallac). […]
Evaluation of raw data: The median value of the counts in column 1 (n=8) of each assay plate was defined as “low control”. This value reflects unspecific binding of radioactivity to the plate in the absence of a protein kinase but in the presence of the substrate. […]
As part of the data evaluation the low control value from a particular plate was subtracted from the high control value as well as from all 80 “compound values” of the corresponding plate. The residual activity (in %) for each well of a particular plate was calculated by using the following formula: Res. Activity (%)=100×[(cpm of compound−low control)/(high control−low control)] […]

CDK12 wt/CycK, sequence (Q9NYV4 whole entry): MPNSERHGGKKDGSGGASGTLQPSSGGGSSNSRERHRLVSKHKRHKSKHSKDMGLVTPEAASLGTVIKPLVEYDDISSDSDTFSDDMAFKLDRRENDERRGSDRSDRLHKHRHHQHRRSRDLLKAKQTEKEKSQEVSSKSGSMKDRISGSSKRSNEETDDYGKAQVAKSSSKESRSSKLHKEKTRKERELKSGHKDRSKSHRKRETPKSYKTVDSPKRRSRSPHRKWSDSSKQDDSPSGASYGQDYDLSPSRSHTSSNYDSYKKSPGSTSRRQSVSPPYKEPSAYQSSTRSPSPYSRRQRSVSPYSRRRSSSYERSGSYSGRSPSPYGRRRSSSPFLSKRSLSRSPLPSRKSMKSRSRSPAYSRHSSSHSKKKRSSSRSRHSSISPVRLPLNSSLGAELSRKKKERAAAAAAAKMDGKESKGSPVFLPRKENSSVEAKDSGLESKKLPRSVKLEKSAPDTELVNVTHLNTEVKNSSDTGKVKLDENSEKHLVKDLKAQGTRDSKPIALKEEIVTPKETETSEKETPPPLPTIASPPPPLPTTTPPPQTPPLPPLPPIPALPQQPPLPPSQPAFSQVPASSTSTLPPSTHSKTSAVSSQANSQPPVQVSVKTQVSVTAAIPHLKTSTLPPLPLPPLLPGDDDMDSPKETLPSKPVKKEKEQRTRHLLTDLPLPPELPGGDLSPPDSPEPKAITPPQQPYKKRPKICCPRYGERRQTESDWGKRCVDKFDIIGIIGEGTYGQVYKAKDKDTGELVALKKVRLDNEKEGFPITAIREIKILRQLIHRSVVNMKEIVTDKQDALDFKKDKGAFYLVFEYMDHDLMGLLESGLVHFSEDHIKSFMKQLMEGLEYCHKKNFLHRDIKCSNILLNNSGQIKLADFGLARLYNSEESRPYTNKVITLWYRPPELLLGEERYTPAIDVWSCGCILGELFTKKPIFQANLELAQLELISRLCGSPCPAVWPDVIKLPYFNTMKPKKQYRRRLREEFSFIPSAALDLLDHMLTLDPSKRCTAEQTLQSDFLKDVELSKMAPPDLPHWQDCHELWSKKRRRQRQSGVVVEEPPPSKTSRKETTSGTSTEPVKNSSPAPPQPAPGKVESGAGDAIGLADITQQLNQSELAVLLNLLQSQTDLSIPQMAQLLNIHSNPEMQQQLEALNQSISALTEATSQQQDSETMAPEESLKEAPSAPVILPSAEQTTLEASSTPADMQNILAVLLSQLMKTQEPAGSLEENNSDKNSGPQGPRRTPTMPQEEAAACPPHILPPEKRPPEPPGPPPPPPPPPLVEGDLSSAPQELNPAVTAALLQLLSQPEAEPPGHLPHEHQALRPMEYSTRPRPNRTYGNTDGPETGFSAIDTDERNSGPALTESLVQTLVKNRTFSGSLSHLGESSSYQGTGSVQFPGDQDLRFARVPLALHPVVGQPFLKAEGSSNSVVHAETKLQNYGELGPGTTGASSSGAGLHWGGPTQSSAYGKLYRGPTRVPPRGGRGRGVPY
CDK12 wt/CycK, sequence (O75909 whole entry partner): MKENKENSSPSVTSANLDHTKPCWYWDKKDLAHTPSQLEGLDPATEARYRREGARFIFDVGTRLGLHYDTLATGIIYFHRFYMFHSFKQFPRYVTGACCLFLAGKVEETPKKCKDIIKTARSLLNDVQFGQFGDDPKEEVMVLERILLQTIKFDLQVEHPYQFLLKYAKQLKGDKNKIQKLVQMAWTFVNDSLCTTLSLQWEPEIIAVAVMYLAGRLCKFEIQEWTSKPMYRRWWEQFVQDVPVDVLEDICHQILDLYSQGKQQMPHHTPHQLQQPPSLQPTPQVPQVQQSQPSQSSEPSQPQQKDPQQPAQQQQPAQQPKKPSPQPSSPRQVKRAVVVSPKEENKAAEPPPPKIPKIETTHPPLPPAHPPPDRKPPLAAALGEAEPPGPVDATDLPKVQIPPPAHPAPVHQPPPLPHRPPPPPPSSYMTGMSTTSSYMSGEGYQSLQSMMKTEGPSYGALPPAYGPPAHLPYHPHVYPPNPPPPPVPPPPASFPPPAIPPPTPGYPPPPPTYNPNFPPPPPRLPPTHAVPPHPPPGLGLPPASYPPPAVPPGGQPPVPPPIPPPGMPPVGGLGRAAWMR

Question: Which IC50 does the source give for COc1nc(N[C@@H]2CCN(C(=O)c3ccc(NC(=O)/C=C/CN4CC[C@@H](F)C4)cn3)C2)ncc1Cl [Example 170, (E)-N-(6-((R)-3-((5-chloro-4-methoxypyrimidin-2-yl)amino)pyrrolidine-1-carbonyl)pyridin-3-yl)-4-((R)-3-fluoropyrrolidin-1-yl)but-2-enamide] here?
Answer: 100 to 1000 nM

Question: Which IC50 does the source give for “(R)—N-(3-(3-((5-chloropyrimidin-2-yl)amino)pyrrolidine-1-carbonyl)phenyl)-2-cyano-3-(dimethylamino)acrylamide [Example 135]” here?
Answer: 1000 to 10000 nM
